For 28 compounds, Ki and Ratio results are on record in ChEMBL document CHEMBL1125572, “Adenosine receptors: pharmacology, structure-activity relationships, and therapeutic potential” (J Med Chem, 1992).

For orientation: Ki means a dissociation constant, usually derived from enzyme kinetics or from competition with a known ligand.

Assay [1] addresses T1, Adenosine receptor A1 (Rattus norvegicus, UniProt P25099).
T1 sequence (P25099 whole entry): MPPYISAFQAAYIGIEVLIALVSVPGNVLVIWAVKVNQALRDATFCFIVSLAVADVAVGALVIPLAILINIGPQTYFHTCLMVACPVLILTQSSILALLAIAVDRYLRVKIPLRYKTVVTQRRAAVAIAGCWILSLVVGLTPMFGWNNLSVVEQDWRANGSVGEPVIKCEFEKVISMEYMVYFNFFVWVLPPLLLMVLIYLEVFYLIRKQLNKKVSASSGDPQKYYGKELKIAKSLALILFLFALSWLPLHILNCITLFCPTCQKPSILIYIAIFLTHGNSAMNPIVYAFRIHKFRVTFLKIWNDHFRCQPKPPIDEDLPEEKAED

Assay [2] deals with T1, Adenosine receptor A1. As to the kind of experiment: Binding affinity for adenosine A1 receptor using [3H]- CHA or [3H]- PIA antagonism of adenylate cyclase inhibition in rat adipocytes. In kind it is cell-based.
Assay [3] concerns the target T2, Adenosine A2 receptor (Homo sapiens, UniProt P29275+P29274). As to the kind of experiment: Binding affinity for adenosine A2 receptor using [3H]- NECA antagonism of adenylate cyclase activation in human platelets.
In assay [4] the target is T1, Adenosine receptor A1. As to the kind of experiment: Binding affinity for Adenosine A1 receptor using [3H]- CHA or [3H]- PIA.
Assay [5] has as its target Adenosine A2 receptor (Rattus norvegicus, UniProt P29276+P30543). As to the kind of experiment: Binding affinity for adenosine A2 receptor using [3H]- NECA. Type of assay: protein assay.
For assay [6], the system named is Adenosine receptors; A1 & A2 (Rattus norvegicus). Briefly: Ratio of adenosine A2 to A1 receptor binding.
The target of assay [7] is Adenosine A2 receptor (Rattus norvegicus) (UniProt P29276+P30543). As to the kind of experiment: Binding affinity for Adenosine A2 receptor using [3H]- NECA. In kind it is protein assay.
In assay [8] the target is T3, Adenosine receptor A1 (Bos taurus, UniProt P28190).
T3 sequence (P28190 whole entry): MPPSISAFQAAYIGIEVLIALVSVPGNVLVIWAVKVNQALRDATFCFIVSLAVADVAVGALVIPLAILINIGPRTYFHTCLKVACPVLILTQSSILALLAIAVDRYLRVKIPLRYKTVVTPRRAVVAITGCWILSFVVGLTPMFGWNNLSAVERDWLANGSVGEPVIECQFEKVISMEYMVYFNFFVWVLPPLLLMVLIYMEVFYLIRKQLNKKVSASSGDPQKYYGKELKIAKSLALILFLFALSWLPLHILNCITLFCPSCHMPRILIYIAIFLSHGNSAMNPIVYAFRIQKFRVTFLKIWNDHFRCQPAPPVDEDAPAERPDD
As to the kind of experiment: Binding affinity for adenosine A1 receptor using [3H]- CHA or [3H]- PIA in bovine brain cortical membranes. Type of assay: cell membranes.

Assay [9] has as its target T2, Adenosine A2 receptor. As to the kind of experiment: Binding affinity for adenosine A2 receptor using [125I]PAPA-APEC in bovine striatum. In kind it is tissue-based. Particulars: Bos taurus, target entry is the homologue from another species.
Assay [10] addresses T2, Adenosine A2 receptor. As to the kind of experiment: Binding affinity for adenosine A2 receptor using [3H]- NECA in bovine brain. Particulars: Bos taurus; target entry is the homologue from another species.
The target in assay [11] is T3, Adenosine receptor A1. As to the kind of experiment: Binding affinity for adenosine A1 receptor using [3H]- CHA or [3H]- PIA in bovine brain.

As for `Nc1nc2ccc(Cl)cc2n2c(-c3ccccc3)nnc12`, in assay [1], the inhibition constant Ki was 270 nM. That is a sub-micromolar value.

Regarding `CCCn1c(=O)c2nc([C@H]3CC[C@H](CNC(C)=O)CC3)[nH]c2n(CCC)c1=O`, the results for the Ki in [2] and in [3] were 8 nM and 20 nM, respectively.

For `Nc1ccc(CCNc2ncnc3c2ncn3C2O[C@H](CO)[C@@H](O)[C@H]2O)cc1I` (stereo partly specified), the inhibition constant Ki in assay [4] was found to be 2 nM. This lies in the single-digit nanomolar range.

On to `Nc1nc(-c2ccccc2)nc2c1cnn2-c1ccccc1`, for which the affinity in [1] corresponds to a Ki of 23 nM.

For the compound `CCNC(=O)[C@H]1O[C@@H](n2cnc3c(N)nc(NCCc4ccc(CCC(=O)NCCN)cc4)nc32)[C@H](O)[C@@H]1O`, the values for the Ki in assay [1] and in [5] were 240 nM and 5.7 nM, respectively.

For the compound `C#CCn1c(=O)c2c(ncn2C)n(C)c1=O`, in assay [1], affinity was put at a Ki of 22000 nM.

In the case of `CCNC(=O)[C@H]1OC(n2cnc3c(N)nc(NCCc4ccc(CCC(=O)NCCNC(=O)Cc5ccc(N)c(I)c5)cc4)nc32)[C@H](O)[C@@H]1O` (stereo partly specified), in [5], the inhibition constant Ki is 1 nM.

Take `OCCCNc1ncnc2c1ncn2C1O[C@H](CO)[C@@H](O)[C@H]1O` (stereo partly specified): in [6], the Ratio came to 700. Also, the results for the Ki in assay [7] and in [4] were 4920 nM and 7 nM, respectively.

In the case of `CCCCCCCCCCCCCCCCCC(=O)NCCNC(=O)Cc1ccc(NC(=O)Cc2ccc(Nc3ncnc4c3ncn4C3O[C@H](CO)[C@@H](O)[C@H]3O)cc2)cc1` (stereo partly specified), in assay [6], the Ratio was determined as 38000. For the same compound, the figures for the Ki in [7] and in assay [4] were 8400 nM and 0.22 nM, respectively.

Consider `CCCn1c(=O)c2[nH]c(C3CCC(=O)C3)nc2n(CCC)c1=O` (stereo unspecified), for which the affinity in [1] corresponds to a Ki of 10.5 nM. That is a double-digit nanomolar value.

Turning to `O=C(Cc1ccc(NC(=O)Cc2ccc(Nc3ncnc4c3ncn4C3O[C@H](CO)[C@@H](O)[C@H]3O)cc2)cc1)NCC/N=C(/S)Nc1ccc2c(c1)C(=O)OC21c2ccc(O)cc2Oc2cc(O)ccc21` (stereo partly specified), the Ki in assay [4] turned out to be 7.1 nM.

Turning to `CCCCCCC#Cc1nc(N)c2ncn([C@@H]3O[C@H](CO)[C@@H](O)[C@H]3O)c2n1`, the affinity in [1] corresponds to a Ki of 211 nM.

In [8], `CCCn1c(=O)c2nc(-c3ccc(OCC(=O)NCCNC(=O)CCc4ccc(N)c(I)c4)cc3)[nH]c2n(CCC)c1=O` gave a Ki of 0.1 nM.

Compound `CCCn1c(=O)c2nc(C3CCCC3)[nH]c2n(CCc2ccc(N)c(I)c2)c1=O` returned a Ki in [1] of 0.23 nM.

Regarding `CCNC(=O)[C@H]1OC(n2cnc3c(N)nc(NCCc4ccc(CCC(=O)NCC/N=C(\S)Nc5ccc(N=C=S)cc5)cc4)nc32)[C@H](O)[C@@H]1O` (stereo partly specified), the inhibition constant Ki stood at 280 nM in assay [1] and 7.1 nM in [9].

Turning to `CCCCC#Cc1nc(N)c2ncn([C@@H]3O[C@H](CO)[C@@H](O)[C@H]3O)c2n1`, the inhibition constant Ki in assay [1] was 147 nM. That is a sub-micromolar value.

In assay [4], `Nc1ccc(CNc2ncnc3c2ncn3C2O[C@H](CO)[C@@H](O)[C@H]2O)cc1I` (stereo partly specified) yielded a Ki of 0.7 nM.

`C[C@H](Cc1ccc(O)c(I)c1)Nc1ncnc2c1ncn2[C@@H]1O[C@H](CO)[C@@H](O)[C@H]1O`: in [4], affinity was put at a Ki of 0.94 nM.

`Nc1nc(NCCC2C=CCCC2)nc2c1ncn2C1O[C@H](CO)[C@@H](O)[C@H]1O` (stereo partly specified) had an inhibitory constant (Ki) in assay [1] of 2700 nM.

`Oc1cccc(C2=CSC3=Nc4ccccc4CN23)c1` displayed a Ki in assay [1] of 3100 nM. The Ki values of the last two compounds are within 1.5-fold of each other.

For `Cn1cnc2c(NC3CC4CCC3C4)ncnc21` (stereo unspecified), the Ki in assay [10] came out at 6100 nM; in assay [11], 10 nM.

The compound `OC[C@H]1O[C@@H](n2cnc3c(Nc4ccccc4)ncnc32)[C@H](O)[C@@H]1O` displayed an inhibition constant (Ki) in assay [7] of 663 nM.

`Cn1c(=O)c2c(nc(C3CCCCC3)n2C)n(C)c1=O` registered a Ki in assay [3] of 0.19 nM.

In the case of `Nc1nc(OCCC2CCCCC2)nc2c1ncn2C1O[C@@H](CO)[C@H](O)[C@@H]1O` (stereo partly specified), in assay [1], the inhibitory constant (Ki) stood at 1500 nM.

In [1], `Cc1c(C)n([C@H](C)Cc2ccccc2)c2nc(-c3ccccc3)nc(N)c12` displayed an inhibition constant Ki of 4.7 nM.

Consider `OC[C@H]1O[C@@H](n2cnc3c(NCCc4ccccc4)ncnc32)[C@H](O)[C@@H]1O`, for which the affinity in assay [4] corresponds to a Ki of 4.1 nM.

`FC(F)(F)c1nnc2c(NC3CCCC3)nc3ccc(Cl)cc3n12` had an inhibition constant Ki in assay [1] of 28 nM.

Take `Cc1ccc(CCOc2nc(N)c3ncn(C4O[C@@H](CO)[C@H](O)[C@@H]4O)c3n2)cc1` (stereo partly specified): the affinity in assay [1], expressed as Ki, was 48 nM.
